Measurements from US9839642B2, “Beta-tetrazolyl-propionic acids as metallo-beta-lactamase inhibitors” (priority 2014, dated 2017).

Key:
[1] = target: NDM-1 (Klebsiella pneumoniae, UniProt C7C422); assay: Enzyme activity: determination of IC50, fluorescence assay with CCF2-FA substrate; type: biochemical; details: enzyme 1 pM, CCF2-FA 1.25 μM, 2 hours at 25° C.; read-out: NDM1 IC50
Protocol: (§1) Enzyme Activity: Determination of IC50
(§2) The Class B enzyme activities were measured in the presence of a compound of the EXAMPLES as a test inhibitor in a fluorescence assay against a commercially available substrate consisting of a cephalosporin core linking 7-hydroxycoumarin to fluorescein (CCF2-FA; Life Technologies, Grand Island, N.Y.). The enzyme (NDM-1, IMP-1 or VIM-1) and the substrate were diluted in 100 mM KH2PO4 buffer (pH 7) containing 0.005% Tween-20 and 10 μM ZnSO4. In the assay, the final concentration of enzyme was 1 pM, 2 pM and 30 pM for NDM-1, IMP-1 and VIM-1, respectively, and the final concentration of CCF2-FA was 1.25 μM. The test inhibitor was dissolved in DMSO and diluted 1:50 in the assay, resulting in a final concentration range of 20 μM to 0.00063 μM. In a 384-well microplate, the test inhibitor was incubated with the metallo-β-lactamase enzyme and the substrate for 2 hours at 25° C. Fluorescence at 460 nm following excitation at 405 nm was measured. The IC50 value was determined from semi-logarithmic plots of enzyme inhibition versus inhibitor concentration, with a curve generated using a 4-parameter fit.

[2] = target: VIM-1 (Pseudomonas aeruginosa, UniProt A0A0F7KYQ8); assay: as above; type: biochemical; details: enzyme 30 pM, CCF2-FA 1.25 μM, 2 hours at 25° C.; read-out: VIM1 IC50
Protocol: as §1, §2

[3] = target: IMP-1 (Serratia marcescens, UniProt P52699); assay: as above; type: biochemical; details: enzyme 2 pM, CCF2-FA 1.25 μM, 2 hours at 25° C.; read-out: IMP1 IC50
Protocol: as §1, §2

[4] = system: Escherichia coli expressing NDM-1 (CLB30016); assay: Antibiotic potentiation activity: synergistic concentration (MITC95) with imipenem, growth by OD600; type: cell-based; details: 95% inhibition of bacterial growth, strain CLB30016
Protocol: (§3) Antibiotic Potentiation Activity: Determination of Synergistic Concentration
(§4) The bacterial strains tested included the clinical strains Escherichia coli expressing NDM-1 (CLB30005, CLB30016), Serratia marcescens expressing IMP-1 (CL5741), and Klebsiella pneumoniae expressing VIM-1 (IHMA599644). Inhibitor activity was measured in the presence and absence of imipenem or ceftazidime in a 384-well microplate.
(§5) The clinical strains CLB30016, CL5741, and IHMA599644 were grown on trypticase soy agar containing 5% sheep's blood. The clinical strain CLB30005 was grown on Mueller Hinton broth agar containing 8 μg/ml imipenem. The bacteria on agar plates were incubated overnight at 35° C. with ambient humidity (achieved from an open pan of water inside the incubator). The following day, individual colonies from each clinical strain were picked and resuspended in 5 ml saline to attain an OD600 of 0.14, 0.11, 0.15 and 0.13, for CLB30005, CLB30016, CL5741 and IHMA599644, respectively. These were further diluted 1:100 into 1.1×CAMHB and used to inoculate the test wells as described below.
(§6) Imipenem in 10 mM 3-(N-morpholino)propanesulfonic acid (MOPS, pH 7) was stored in single use aliquots at −80° C. Test inhibitors were dissolved in DMSO and diluted 1:50 in the assay, resulting in a final concentration range of 200 μM to 0.195 μM. On the day of the assay, 4 μl of antibiotic was added to 45 μl of bacteria followed by 1 μl of test compound and mixed by pipetting and with an orbital shaker. The concentration of antibiotic used in the assay was 1 μg/ml or 4 μg/ml. Microplates were covered and incubated at 35° C. for 22 hours to 24 hours. At the end of the incubation, absorbance was determined using a spectrophotometer. The synergistic concentration of MBLI was determined by identifying the lowest concentration of test compound in the presence of a given concentration of antibiotic that was required to inhibit 95% of the growth of the bacteria.
(§7) Representative compounds of the present invention display a synergistic effect. For example, representative compounds of EXAMPLES 1-456 were determined to restore susceptibility to imipenem at concentrations of 200 μM or less.

[5] = system: Serratia marcescens expressing IMP-1 (CL5741); assay: as above; type: cell-based; details: 95% inhibition of bacterial growth, strain CL5741
Protocol: as §3, §4, §5, §6, §7

[6] = system: Klebsiella pneumoniae expressing VIM-1 (IHMA599644); assay: as above; type: cell-based; details: 95% inhibition of bacterial growth, strain IHMA599644
Protocol: as §3, §4, §5, §6, §7

NDM-1, sequence (C7C422 29-270, looked up, species assumed): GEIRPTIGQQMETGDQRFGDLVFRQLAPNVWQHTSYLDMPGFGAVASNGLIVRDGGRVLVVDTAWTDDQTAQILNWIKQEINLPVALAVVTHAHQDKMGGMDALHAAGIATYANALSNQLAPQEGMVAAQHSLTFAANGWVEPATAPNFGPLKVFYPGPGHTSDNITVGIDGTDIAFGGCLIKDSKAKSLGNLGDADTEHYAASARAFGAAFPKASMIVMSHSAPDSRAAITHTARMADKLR
IMP-1, sequence (P52699 19-246, looked up, species assumed): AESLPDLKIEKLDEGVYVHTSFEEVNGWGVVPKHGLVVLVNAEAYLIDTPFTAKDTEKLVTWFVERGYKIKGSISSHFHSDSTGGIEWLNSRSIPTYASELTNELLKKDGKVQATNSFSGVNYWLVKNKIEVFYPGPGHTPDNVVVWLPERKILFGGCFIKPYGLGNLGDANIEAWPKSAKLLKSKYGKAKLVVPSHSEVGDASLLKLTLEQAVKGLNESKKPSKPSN

| SMILES | IC50 [1] [nM] | IC50 [2] [nM] | IC50 [3] [nM] | NDM1 EC30016 MITC95 [4] [µM] | IMP1 SM5741 MITC95 [5] [µM] | VIM1 KP599644 MITC95 [6] [µM] |
| --- | --- | --- | --- | --- | --- | --- |
| CCC[C@H](C(=O)O)[C@H](Cc1ccccc1Br)c1nnn[nH]1 [Example 26, (2S)-2-[(1S)-2-(2-bromophenyl)-1-(1H-tetrazol-5-yl)ethyl]pentanoic acid] | 9.9 | 2.4 | 570 | 3.1 | 12.5 | 18.8 |
| CCC[C@H](C(=O)O)[C@H](Cc1cccc(C#N)c1)c1nn[nH]n1 [Example 41, (2S)-2-[(1S)-2-(3-cyanophenyl)-1-(1H-tetrazol-5-yl)ethyl]pentanoic acid] | 60 | 0.87 | 590 | 18.8 | 37.5 | 18.8 |
| CC(C)C[C@H](C(=O)O)[C@H](Cc1ccc(C#N)cc1)c1nnn[nH]1 [Example 42] | 74 | 1.4 | 190 | 18.8 | 12.5 | 37.5 |
| CCC[C@H](C(=O)O)[C@H](Cc1ccccc1C#N)c1nnn[nH]1 [Example 43, (2S)-2-[(1S)-2-(2-cyanophenyl)-1-(1H-tetrazol-5-yl)ethyl]pentanoic acid] | 22 | 3.2 | 1600 | 4.7 | 50 | 31 |
| CCC[C@H](C(=O)O)[C@H](Cc1ccc(-c2nnn[nH]2)cc1)c1nn[nH]n1 [Example 44, (S)-2-((S)-2-(4-(1H-tetrazol-5-yl)phenyl)-1-(2H-tetrazol-5-yl)ethyl)pentanoic acid] | 21 | 5.5 | 640 | 150 | 18.8 | 200 |
| CCC[C@H](C(=O)O)[C@H](Cc1cccc(C(N)=O)c1)c1nn[nH]n1 [Example 46, (2S)-2-[(1S)-2-(3-carbamoylphenyl)-1-(2H-tetrazol-5-yl)ethyl]pentanoic acid] | 70 | 5.9 | 1600 | 9.4 | 37.5 | 12.5 |
| CCC[C@H](C(=O)O)[C@H](Cc1ccccc1C(N)=O)c1nnn[nH]1 [Example 47, (2S)-2-[(1S)-2-(2-carbamoylphenyl)-1-(1H-tetrazol-5-yl)ethyl]pentanoic acid] | 120 | 73 | 7200 | 9.4 | 200 | 37.5 |
| CC(C)C[C@H](C(=O)O)[C@H](Cc1ccc(C(N)=O)cc1)c1nnn[nH]1 [Example 48, (2S)-2-[(1S)-2-(4-carbamoylphenyl)-1-(1H-tetrazol-5-yl)ethyl]-4-methylpentanoic acid] | 43 | 2.2 | 130 | 6.2 | 4.7 | 50 |
| CC(C)C[C@H](C(=O)O)[C@H](Cc1ccc(S(C)(=O)=O)cc1)c1nn[nH]n1 [Example 50, (S)-4-methyl-2-((S)-2-(4-(methylsulfonyl)phenyl)-1-(2H-tetrazol-5-yl)ethyl)pentanoic acid] | 47 | 6.6 | 100 | 25 | 6.2 | 50 |
